Reference: article PMC5583658, “6,7-dimethoxy-1,2,3,4-tetrahydro-isoquinoline-3-carboxylic acid attenuates heptatocellular carcinoma in rats with NMR-based metabolic perturbations” (Future Science OA, 2017)

Tested on: diethylnitrosamine-induced hepatocarcinogenic rats
Test: 1H-NMR-based serum metabolic profiling
Assay type: in vivo, albino Wistar rats
Conditions: rat serum
Protocol: All animals were randomly divided into five groups of six animals each. Drugs were suspended in 0.25% CMC, subjected to 28 days’ treatment orally and divided as follows: Group I: 0.25% CMC (2 ml/kg), Group II: DEN (8 mg/kg, intraperitoneally), Group III: DEN+5-fluorouracil (5-FU, 10 mg/kg, intraperitoneally), Group IV: DEN+M1 (50 mg/kg, orally) and Group V: DEN+M1 (100 mg/kg, orally). The procedure to induce HCC was adopted from a paper by Song et al. where it is shown that DEN produces HCC at 8 mg/kg intraperitoneal injection for 28 days to albino Wistar rats. After initial 1 week of adaptive inhabitation, all rats of group II–V were administered with DEN (8 mg/kg, intraperitoneally) for 28 days. After 28 days, 5-FU and M1 were given for 15 days as mentioned above for group III–V. At the end of the experimental period, animals were sacrificed by cervical decapitation and livers were dissected out immediately, rinsed in ice cold saline and stored at -20°C for further studies. The serum was collected, processed and stored for further analysis.
All serum samples were thawed at room temperature, 250 μl of serum was taken and mixed with 250 μl of 0.9% saline sodium-phosphate buffer of strength 50 mM, pH 7.4 prepared in D2O. Then, the samples were centrifuged at 10,000 rpm for 5 min to remove any precipitates before acquiring the NMR data. A total 400 μl of the supernatant sample was used in 5 mm NMR tubes (Wilmad Glass, USA) for data acquisition with a co-axial insert containing the known concentration of TSP (sodium salt of 3-trimethylsilyl-(2,2,3,3-d4)-propionic acid) i.e. 0.1% was used as external standard reference to aid metabolite quantification for NMR experiment. Deuterium oxide (D2O; as a co-solvent and to provide a deuterium field/frequency lock) and sodium salt of trimethylsilylpropionic acid-d4 (TSP) used for NMR experiments, were purchased from Sigma-Aldrich (RI, USA).
All NMR spectra were recorded at 298 K on Bruker Biospin Avance-III 800 MHz NMR spectrometer operating at proton frequency of 800.21 MHz, equipped with CryoProbe and an actively shielded gradient unit with a maximum gradient-strength output of […]. The raw NMR data were processed in Topspin-2.1 (Bruker NMR data Processing Software). For each serum sample, one-dimensional ^1H-NMR and diffusion edited ^1H NMR spectra were recorded using the Carr–Purcell–Meiboom–Gill (CPMG) pulse sequence (cpmgpr1d, standard Bruker pulse program) with pre-saturation of the water peak through irradiating it continuously during the recycle delay (RD) of 5 sec, and the bipolar pulse pair longitudinal eddy current delay (BPP-LED) sequence, respectively. Each CPMG spectrum consisted of the accumulation of 128 scans and lasted for approximately 15 minutes. To remove broad signals from triglycerides, proteins, cholesterols and phospholipids, a total spin–spin relaxation time of 60 ms (n = 300 and 2τ=[…]) with a line broadening factor of 0.3 Hz was applied. For diffusion edited (DE)^1H NMR pulse sequence, the square gradients of 70% of the maximum gradient strength (56 G/cm) and 2 ms duration (followed by a delay of 200 μs to allow for the decay of eddy currents) were used. Diffusion time of 120 ms was used to attenuate the signals from low molecular weight compounds without affecting the lipid signals. All the spectra were processed using Topspin-2.1 (Bruker NMR data Processing Software) using standard Fourier Transformation (FT) procedure following manual phase and baseline-correction. Prior to FT, each FID was zero-filled to 4096 data points and a sine-bell apodisation function was applied. After FT, the chemical shifts were referenced internally to methyl peak of L-lactate (at δ=1.33 ppm). All recorded spectra were visually inspected for acceptability and subjected to multivariate statistical analysis to identify the altered metabolic pattern. […]

`COc1cc2c(cc1OC)CC(C(=O)O)NC2` (stereo not shown) [M1, 6,7-dimethoxy-1,2,3,4-tetrahydro-isoquinoline-3-carboxylic acid] was tested, and the “Variation with respect to DEN: Acac (chemical shift 2.28)” value (DEN+M1 50 mg/kg orally) was “↑”, the “Variation with respect to DEN: Ace (chemical shift 1.92)” value (DEN+M1 50 mg/kg orally) was “↓” and the “Variation with respect to DEN: Acet (chemical shift 2.23)” value (DEN+M1 50 mg/kg orally) was “↑”. The “Variation with respect to DEN: Ala (chemical shift 1.48)” value (DEN+M1 50 mg/kg orally) was “↓”, the “Variation with respect to DEN: Betaine (chemical shift 3.265)” value (DEN+M1 50 mg/kg orally) was “↓” and the “Variation with respect to DEN: Chol (chemical shift 3.22)” value (DEN+M1 50 mg/kg orally) was “↓”. For the same compound, the “Variation with respect to DEN: Cit (chemical shift 2.52)” value (DEN+M1 50 mg/kg orally) was “↑”, the “Variation with respect to DEN: Cr (chemical shift 3.03)” value (DEN+M1 50 mg/kg orally) was “↑” and the “Variation with respect to DEN: L1 (LDL) (chemical shift 0.83–0.87)” value (DEN+M1 50 mg/kg orally) was “↓”. The “Variation with respect to DEN: L2 (VLDL) (chemical shift 0.87–0.90)” value (DEN+M1 50 mg/kg orally) was “↑”, the “Variation with respect to DEN: L3 (LDL) (chemical shift 1.23–1.27)” value (DEN+M1 50 mg/kg orally) was “↓” and the “Variation with respect to DEN: L4 (VLDL) (chemical shift 1.27–1.30)” value (DEN+M1 50 mg/kg orally) was “↑”. For the same compound, the “Variation with respect to DEN: L6 (chemical shift 2.00)” value (DEN+M1 50 mg/kg orally) was “↓”, the “Variation with respect to DEN: L9 (chemical shift 5.28)” value (DEN+M1 50 mg/kg orally) was “↓” and the “Variation with respect to DEN: Leu (chemical shift 0.96)” value (DEN+M1 50 mg/kg orally) was “↑”. For the same compound, the “Variation with respect to DEN: Lys (chemical shift 1.89)” value (DEN+M1 50 mg/kg orally) was “↓”, the “Variation with respect to DEN: NAG (chemical shift 2.02)” value (DEN+M1 50 mg/kg orally) was “↑” and the “Variation with respect to DEN: OAG (chemical shift 2.13)” value (DEN+M1 50 mg/kg orally) was “↑”. The “Variation with respect to DEN: Pyr (chemical shift 2.37)” value (DEN+M1 50 mg/kg orally) was “↓”, the “Variation with respect to DEN: Tyr (chemical shift 6.89)” value (DEN+M1 50 mg/kg orally) was “↓” and the “Variation with respect to DEN: Acac (chemical shift 2.28)” value (DEN+M1 100 mg/kg orally) was “↑”. For the same compound, the “Variation with respect to DEN: Ace (chemical shift 1.92)” value (DEN+M1 100 mg/kg orally) was “↓”, the “Variation with respect to DEN: Acet (chemical shift 2.23)” value (DEN+M1 100 mg/kg orally) was “↑” and the “Variation with respect to DEN: Ala (chemical shift 1.48)” value (DEN+M1 100 mg/kg orally) was “↓”. For the same compound, the “Variation with respect to DEN: Betaine (chemical shift 3.265)” value (DEN+M1 100 mg/kg orally) was “↓”, the “Variation with respect to DEN: Chol (chemical shift 3.22)” value (DEN+M1 100 mg/kg orally) was “↓” and the “Variation with respect to DEN: Cit (chemical shift 2.52)” value (DEN+M1 100 mg/kg orally) was “↑”. The “Variation with respect to DEN: Cr (chemical shift 3.03)” value (DEN+M1 100 mg/kg orally) was “↓”, the “Variation with respect to DEN: ILeu (chemical shift 1.00)” value (DEN+M1 100 mg/kg orally) was “↑” and the “Variation with respect to DEN: L1 (LDL) (chemical shift 0.83–0.87)” value (DEN+M1 100 mg/kg orally) was “↓”. For the same compound, the “Variation with respect to DEN: L2 (VLDL) (chemical shift 0.87–0.90)” value (DEN+M1 100 mg/kg orally) was “↑”, the “Variation with respect to DEN: L4 (VLDL) (chemical shift 1.27–1.30)” value (DEN+M1 100 mg/kg orally) was “↑” and the “Variation with respect to DEN: Leu (chemical shift 0.96)” value (DEN+M1 100 mg/kg orally) was “↑”. The “Variation with respect to DEN: Lys (chemical shift 1.89)” value (DEN+M1 100 mg/kg orally) was “↓”, the “Variation with respect to DEN: NAG (chemical shift 2.02)” value (DEN+M1 100 mg/kg orally) was “↑” and the “Variation with respect to DEN: Pyr (chemical shift 2.37)” value (DEN+M1 100 mg/kg orally) was “↓”. The “Variation with respect to DEN: Tyr (chemical shift 6.89)” value (DEN+M1 100 mg/kg orally) was “↓”.
